In ChEMBL document CHEMBL4732063, “Ninhydrins inhibit carbonic anhydrases directly binding to the metal ion” (Eur J Med Chem, 2021):

What was measured:
Carbonic anhydrase 2 = Carbonic anhydrase 2 (Homo sapiens, UniProt P00918); test: Inhibition of recombinant human carbonic anhydrase 2 preincubated with enzyme for 15 mins by phenol red dye based stopped flow CO2 hydration assay
Carbonic anhydrase 4 = Carbonic anhydrase 4 (Homo sapiens, UniProt P22748); test: Inhibition of recombinant human carbonic anhydrase 4 preincubated with enzyme for 15 mins by phenol red dye based stopped flow CO2 hydration assay
Carbonic anhydrase 7 = Carbonic anhydrase 7 (Homo sapiens, UniProt P43166); test: Inhibition of recombinant human carbonic anhydrase 7 preincubated with enzyme for 15 mins by phenol red dye based stopped flow CO2 hydration assay
Carbonic anhydrase 1 = Carbonic anhydrase 1 (Homo sapiens, UniProt P00915); test: Inhibition of recombinant human carbonic anhydrase 1 preincubated with enzyme for 15 mins by phenol red dye based stopped flow CO2 hydration assay
Carbonic anhydrase 9 = Carbonic anhydrase 9 (Homo sapiens, UniProt Q16790); test: Inhibition of recombinant human carbonic anhydrase 9 preincubated with enzyme for 15 mins by phenol red dye based stopped flow CO2 hydration assay

Chain of Carbonic anhydrase 4 (P22748 whole entry): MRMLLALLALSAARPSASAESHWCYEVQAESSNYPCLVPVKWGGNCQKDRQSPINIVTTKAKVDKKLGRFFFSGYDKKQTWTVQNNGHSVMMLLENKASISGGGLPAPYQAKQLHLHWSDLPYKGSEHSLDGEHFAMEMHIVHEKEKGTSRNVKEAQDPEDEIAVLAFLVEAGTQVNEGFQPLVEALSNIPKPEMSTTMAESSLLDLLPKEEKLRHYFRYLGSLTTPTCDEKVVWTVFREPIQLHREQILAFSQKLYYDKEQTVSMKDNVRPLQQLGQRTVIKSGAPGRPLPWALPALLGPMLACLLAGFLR
Chain of Carbonic anhydrase 7 (P43166 whole entry): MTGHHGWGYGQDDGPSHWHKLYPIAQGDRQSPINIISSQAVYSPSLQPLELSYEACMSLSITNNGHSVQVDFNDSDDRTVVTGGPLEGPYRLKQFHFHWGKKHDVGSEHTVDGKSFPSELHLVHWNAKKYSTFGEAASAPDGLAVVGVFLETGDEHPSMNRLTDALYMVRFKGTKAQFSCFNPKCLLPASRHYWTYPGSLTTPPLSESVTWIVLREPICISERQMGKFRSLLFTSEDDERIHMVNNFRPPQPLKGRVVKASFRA
Chain of Carbonic anhydrase 1 (P00915 whole entry): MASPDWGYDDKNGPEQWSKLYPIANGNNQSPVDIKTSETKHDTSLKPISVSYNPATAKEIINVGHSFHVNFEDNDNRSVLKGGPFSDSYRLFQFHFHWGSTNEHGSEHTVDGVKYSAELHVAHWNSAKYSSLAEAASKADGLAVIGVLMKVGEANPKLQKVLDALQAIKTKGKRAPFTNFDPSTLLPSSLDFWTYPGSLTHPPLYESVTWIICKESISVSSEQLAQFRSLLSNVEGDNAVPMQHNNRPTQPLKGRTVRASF

| SMILES | Ki (Carbonic anhydrase 2) [µM] | Ki (Carbonic anhydrase 4) [µM] | Ki (Carbonic anhydrase 7) [µM] | Ki (Carbonic anhydrase 1) [µM] | Ki (Carbonic anhydrase 9) [µM] |
| --- | --- | --- | --- | --- | --- |
| O=C1c2ccc([N+](=O)[O-])cc2C(=O)C1(O)O | – | > 100 | – | – | 29.6 |
| O=C1c2cccc(Br)c2C(=O)C1(O)O | – | > 100 | – | – | 61.2 |
| COc1ccc(CNC(=O)CCl)c2c1C(=O)C(O)(O)C2=O | – | > 100 | – | – | 8.41 |
| O=C1c2cccc([N+](=O)[O-])c2C(=O)C1(O)O | – | > 100 | – | – | 31 |
| COc1cc2c(cc1OC)C(=O)C(O)(O)C2=O | – | > 100 | – | – | 30.4 |
| O=C1c2cccc(O)c2C(=O)C1(O)O | – | > 100 | – | – | 17.1 |
| Cc1cccc2c1C(=O)C(O)(O)C2=O | – | > 100 | – | – | 51.4 |
| O=C1c2cccc(F)c2C(=O)C1(O)O | – | > 100 | – | – | 44.3 |
| CC(C)Oc1cccc2c1C(=O)C(O)(O)C2=O | – | > 100 | – | – | 1.34 |
| COc1ccc(OC)c2c1C(=O)C(O)(O)C2=O | – | > 100 | – | – | 68.2 |
| O=C1c2ccc(F)cc2C(=O)C1(O)O | – | > 100 | – | – | 38.7 |
| O=C1c2ccc(O)cc2C(=O)C1(O)O | – | > 100 | – | – | 27.8 |
| COc1ccc(C(C)C)c2c1C(=O)C(O)(O)C2=O | – | > 100 | – | – | 54.3 |
| COc1cccc2c1C(=O)C(O)(O)C2=O | – | > 100 | – | – | 34.1 |

Now from value to compound:

| Ki (Carbonic anhydrase 2) [µM] | Ki (Carbonic anhydrase 4) [µM] | Ki (Carbonic anhydrase 7) [µM] | Ki (Carbonic anhydrase 1) [µM] | Ki (Carbonic anhydrase 9) [µM] | SMILES |
| --- | --- | --- | --- | --- | --- |
| 22.7 | > 100 | 0.074 | 5.38 | 2.37 | O=C1c2ccccc2C(=O)C1(O)O |
| – | > 100 | – | – | 2.81 | O=C1c2cc(Br)cc(Br)c2C(=O)C1(O)O |
| – | 84.6 | – | – | 16.8 | Cc1ccc2c(c1)C(=O)C(O)(O)C2=O |
| – | 71.3 | – | – | 2.85 | O=C1c2ccc(Br)cc2C(=O)C1(O)O |
| – | 74.3 | – | – | 13.4 | COc1ccc2c(c1)C(=O)C(O)(O)C2=O |
| – | 39.7 | – | – | 46.7 | O=C1c2c(Br)c(Br)c(Br)c(Br)c2C(=O)C1(O)O |
